Test results: patent US9771333B2, “Quinazoline derivatives as TAM family kinase inhibitors” (SIGNALCHEM LIFESCIENCES CORP., priority 2013, dated 2017)

Tests used:
Assay type in all cases: biochemical
human Tyro3 = molecular target: T1, human Tyro3 (Homo sapiens, UniProt Q06418); assay: Kinase enzymatic activity assay (33P-radiolabeled phosphate transfer), Tyro3; conditions: recombinant human Tyro3 (455-end), poly(4:1 glu:tyr) substrate, 30 minutes
T1 construct: GST (N); made in house; host or cells: Sf9 insect cells (baculovirus)
T1 sequence (Q06418 455-890 limits assumed): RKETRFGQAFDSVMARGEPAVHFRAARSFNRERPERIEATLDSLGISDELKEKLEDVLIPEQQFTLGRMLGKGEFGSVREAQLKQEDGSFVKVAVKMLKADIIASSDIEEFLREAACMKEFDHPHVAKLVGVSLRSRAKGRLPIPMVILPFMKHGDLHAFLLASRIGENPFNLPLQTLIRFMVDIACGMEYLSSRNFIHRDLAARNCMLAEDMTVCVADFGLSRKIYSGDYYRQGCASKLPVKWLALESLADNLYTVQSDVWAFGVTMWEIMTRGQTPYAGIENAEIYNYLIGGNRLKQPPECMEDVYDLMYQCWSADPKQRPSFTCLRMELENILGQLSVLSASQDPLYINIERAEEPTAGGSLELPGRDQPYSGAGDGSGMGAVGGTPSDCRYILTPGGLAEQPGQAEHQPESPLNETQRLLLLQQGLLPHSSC
In short: (§1)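 GST-tagged human Tyro3 (455-end), Axl (473-end) and Mer (578-872) from Sf9 cells, with poly(Glu:Tyr) 4:1 substrate, in MOPS pH 7.2 buffer with MgCl2. [33P]-ATP added from a 250 µM cocktail; reaction 30 min at room temperature, filter-captured counts, duplicates. IC50 derived from % inhibition over a compound serial dilution.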

human Axl = molecular target: T2, human Axl (Homo sapiens, UniProt P30530); assay: Kinase enzymatic activity assay (33P-radiolabeled phosphate transfer), Axl; conditions: recombinant human Axl (473-end), poly(4:1 glu:tyr) substrate, 30 minutes
T2 construct: GST (N); made in house; host or cells: Sf9 insect cells (baculovirus)
T2 sequence (P30530 473-894 limits assumed): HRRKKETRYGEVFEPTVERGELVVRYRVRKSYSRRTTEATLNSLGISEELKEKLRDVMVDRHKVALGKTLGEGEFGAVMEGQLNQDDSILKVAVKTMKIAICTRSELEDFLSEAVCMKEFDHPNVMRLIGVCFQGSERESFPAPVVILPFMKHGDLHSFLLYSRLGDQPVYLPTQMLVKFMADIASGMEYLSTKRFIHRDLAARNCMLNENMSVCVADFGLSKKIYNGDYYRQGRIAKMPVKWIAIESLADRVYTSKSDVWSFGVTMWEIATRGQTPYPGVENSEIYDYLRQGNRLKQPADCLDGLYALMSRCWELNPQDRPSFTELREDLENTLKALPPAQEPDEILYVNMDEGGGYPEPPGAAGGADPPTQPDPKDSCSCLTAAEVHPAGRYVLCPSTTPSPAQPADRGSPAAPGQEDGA
In short: as §1

human Mer = molecular target: T3, human Mer (Homo sapiens, UniProt Q12866); assay: Kinase enzymatic activity assay (33P-radiolabeled phosphate transfer), Mer; conditions: recombinant human Mer (578-872), poly(4:1 glu:tyr) substrate, 30 minutes
T3 construct: GST (N); made in house; host or cells: Sf9 insect cells (baculovirus)
T3 sequence (Q12866 578-872): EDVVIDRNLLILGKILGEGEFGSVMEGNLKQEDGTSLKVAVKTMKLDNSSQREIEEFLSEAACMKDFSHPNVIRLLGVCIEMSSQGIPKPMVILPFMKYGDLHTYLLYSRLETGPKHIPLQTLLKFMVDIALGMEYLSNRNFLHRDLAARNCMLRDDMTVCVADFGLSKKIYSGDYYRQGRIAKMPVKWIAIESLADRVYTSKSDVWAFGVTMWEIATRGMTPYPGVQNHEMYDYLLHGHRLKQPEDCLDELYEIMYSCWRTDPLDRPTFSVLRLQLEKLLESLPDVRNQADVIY
In short: as §1

Row | Compound | IC50 (human Tyro3) [nM] | IC50 (human Axl) [nM] | IC50 (human Mer) [nM]
1 | COc1cc(N2CCOCC2)cc2ncnc(Nc3nc(C(F)(F)F)cs3)c12 [Example 2.24, N-(5-methoxy-7-morpholinoquinazolin-4-yl)-4-(trifluoromethyl)thiazol-2-amine] | > 10000 | 1000 to 10000 | > 10000
2 | COc1cc(OCC2CCN(C)CC2)cc2ncnc(Nc3nc(C(F)(F)F)cs3)c12 [Example 2.13, N-(5-methoxy-7-((1-methylpiperidin-4-yl)methoxy)quinazolin-4-yl)-4-(trifluoromethyl)thiazol-2-amine] | > 10000 | < 500 | > 10000
3 | OC[C@@H](O)COc1cc(OC2CCOCC2)c2c(Nc3nc(C(F)(F)F)cs3)ncnc2c1 [Example 2.55, (R)-3-((5-((tetrahydro-2H-pyran-4-yl)oxy)-4-((4-(trifluoromethyl)thiazol-2-yl)amino)quinazolin-7-yl)oxy)propane-1,2-diol] | > 10000 | 500 to 1000 | > 10000
4 | COc1cc(OCC2CCN(C)CC2)cc2ncnc(Oc3ccc(F)cc3Cl)c12 [Example 2.34, 4-(2-chloro-4-fluorophenoxy)-5-methoxy-7-((1-methylpiperidin-4-yl)methoxy)quinazoline] | < 500 | 1000 to 10000 | 500 to 1000
5 | Fc1ccc(Oc2ncnc3cc(OCCN4CCCCC4)cc(OC4CCOCC4)c23)c(Cl)c1 [Example 1, 4-(2-chloro-4-fluorophenoxy)-7-(2-(piperidin-1-yl)ethoxy)-5-((tetrahydro-2H-pyran-4-yl)oxy)quinazoline] | < 500 | 1000 to 10000 | < 500
6 | COCCOc1cc(OCCN2CCN(C)CC2)cc2ncnc(Sc3ccc(F)c(Br)c3)c12 [Example 4.5, 4-((3-bromo-4-fluorophenyl)thio)-5-(2-methoxyethoxy)-7-(2-(4-methylpiperazin-1-yl)ethoxy)quinazoline] | < 500 | 1000 to 10000 | > 10000
7 | COCCOc1cc(OCCN2CCN(C)CC2)cc2ncnc(Sc3cc(F)cc(F)c3)c12 [Example 4.3, 4-((3,5-difluorophenyl)thio)-5-(2-methoxyethoxy)-7-(2-(4-methylpiperazin-1-yl)ethoxy)quinazoline] | 1000 to 10000 | 1000 to 10000 | > 10000
8 | CN1CCN(CCOc2cc(OC3CCOCC3)c3c(Sc4ccc(F)cc4Cl)ncnc3c2)CC1 [Example 3.3, 4-((2-chloro-4-fluorophenyl)thio)-7-(2-(4-methylpiperazin-1-yl)ethoxy)-5-((tetrahydro-2H-pyran-4-yl)oxy)quinazoline] | < 500 | > 10000 | 1000 to 10000
9 | Cc1nc(Sc2ncnc3cc(OCC4CCN(C)CC4)cc(OC4CCOCC4)c23)oc1C [Example 2.49, 4,5-dimethyl-2-((7-((1-methylpiperidin-4-yl)methoxy)-5-((tetrahydro-2H-pyran-4-yl)oxy)quinazolin-4-yl)thio)oxazole] | 1000 to 10000 | > 10000 | > 10000
10 | Fc1ccc(Oc2ncnc3cc(OCCN4CCOCC4)cc(OC4CCOCC4)c23)c(Cl)c1 [Example 2.1, 4-(2-((4-(2-chloro-4-fluorophenoxy)-5-((tetrahydro-2H-pyran-4-yl)oxy)-quinazolin-7-yl)oxy)ethyl)morpholine] | 1000 to 10000 | 1000 to 10000 | 500 to 1000
11 | COc1cc(OCCN2CCN(C)CC2)cc2ncnc(Oc3ccc(F)cc3Cl)c12 [Example 2.12, 4-(2-chloro-4-fluorophenoxy)-5-methoxy-7-(2-(4-methylpiperazin-1-yl)ethoxy)quinazoline] | < 500 | 1000 to 10000 | 1000 to 10000
